Experimental data reported in patent publication US20230339886A1 (University of Florida Research Foundation, Incorporated, priority 2020, published 2023).

Experiments:
REV-ERBβ = molecular target: T1, REV-ERBβ (Homo sapiens, UniProt Q14995); assay: TR-FRET corepressor interaction assay (REV-ERBβ, FITC-SMRT peptide); format: biochemical; conditions: Table 2, read-out: REVERBβ agonism (EC50 class, FRET assay)
T1 construct: 6×Histag-REV-ERBα LBD (human; residues 381-579); made in house; host or cells: Escherichia coli
T1 sequence (Q14995 381-579): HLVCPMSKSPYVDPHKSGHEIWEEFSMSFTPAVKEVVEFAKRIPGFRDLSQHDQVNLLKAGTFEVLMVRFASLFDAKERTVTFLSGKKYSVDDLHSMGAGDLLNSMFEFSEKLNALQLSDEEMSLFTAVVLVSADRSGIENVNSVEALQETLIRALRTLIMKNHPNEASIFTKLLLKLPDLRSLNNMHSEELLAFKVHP
Description: TR-FRET corepressor interaction assay. The time-resolved fluorescence resonance energy transfer (TR-FRET) assay was performed in black low-volume 384-well plates (Greiner). […] Ligand stocks were prepared via serial dilution in DMSO, added to wells in triplicate, and plates were incubated at 4° C. for 2 h and read using a BioTek Synergy Neo multimode plate reader. The Tb donor was excited at 340 nm; its fluorescence emission was monitored at 495 nm, and the acceptor FITC emission was measured at 520 nm; and the TR-FRET ratio was calculated as the signal at 520 nm divided by the signal at 495 nm. Data were plotted using GraphPad Prism as TR-FRET ratio vs. ligand concentration and fit to sigmoidal dose response curve equation.
Exemplary compounds of the present disclosure were assayed as described above to assess agonism of REV-ERBα and REV-ERBβ.

[1] = molecular target: T2, REV-ERBα LBD (human; residues 281-614 Δ324-422) (Homo sapiens, UniProt P20393, DEL324-422); assay: TR-FRET corepressor interaction assay (REV-ERBα LBD, FITC-SMRT peptide); format: biochemical; conditions: Table 2, read-out: REVERBα agonism (EC50 class, FRET assay)
T2 construct: 6×Histag-REV-ERBα LBD (human; residues 281-614 Δ324-422); made in house; host or cells: Escherichia coli
Summary of the method: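 Compound serial dilutions (in DMSO, triplicate) incubated 2 h at 4 °C; Tb donor excited at 340 nm, emission read at 495 nm and FITC acceptor at 520 nm. TR-FRET ratio (520/495 nm) plotted against ligand concentration and fitted to a sigmoidal dose-response curve.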

T2 sequence (P20393 with tags, fused parts or gaps DEL324-422): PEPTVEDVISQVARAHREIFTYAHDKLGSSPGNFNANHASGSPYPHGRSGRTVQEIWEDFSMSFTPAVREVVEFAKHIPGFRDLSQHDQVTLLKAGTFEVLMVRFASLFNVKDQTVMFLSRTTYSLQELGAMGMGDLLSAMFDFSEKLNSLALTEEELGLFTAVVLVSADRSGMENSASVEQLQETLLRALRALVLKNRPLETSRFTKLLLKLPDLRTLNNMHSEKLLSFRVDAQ
T2 sequence (Q9Y618 2335-2356 partner limits assumed): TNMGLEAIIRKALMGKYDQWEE

Compound: CC(C)Cn1cc([C@H](NS(=O)(=O)C2CC2)C(F)(F)F)c2ccc(C3CC3)cc21 [Example 310, (S)—N-(1-(6-cyclopropyl-1-isobutyl-1H-indol-3-yl)-2,2,2-trifluoroethyl)cyclopropanesulfonamide]
- EC50 (REV-ERBβ): 500 to 3000 nM
- EC50 [1]: < 500 nM

Compound: CC(C)Cn1cc(CCNS(=O)(=O)N(C)C)c2ccc(-c3cc[nH]c(=O)c3)cc21 [Compound 18]
- EC50 (REV-ERBβ): > 3000 nM
- EC50 [1]: > 3000 nM

Compound: CC(C)Cn1cc(CCNS(=O)(=O)N(C)C)c2ccc(-c3cn[nH]c3)cc21 [Compound 35, dimethyl({2-[1-(2-methylpropyl)-6-(1H-pyrazol-4-yl)-1H-indol-3-yl]ethyl}sulfamoyl)amine]
- EC50 (REV-ERBβ): > 3000 nM
- EC50 [1]: < 500 nM

Compound: CC(C)Cn1cc(CCNS(=O)(=O)N(C)C)c2ccc(-c3cccnc3)cc21 [Compound 28, dimethyl({2-[1-(2-methylpropyl)-6-(pyridin-3-yl)-1H-indol-3-yl]ethyl}sulfamoyl)amine]
- EC50 (REV-ERBβ): > 3000 nM
- EC50 [1]: < 500 nM

Compound: CC(C)Cn1cc(CNS(=O)(=O)C(C)C)c2cc(F)c(-c3ccncc3)cc21 [Compound 265]
- EC50 (REV-ERBβ): > 3000 nM
- EC50 [1]: < 500 nM

Compound: CC(C)Cn1cc(CCNS(=O)(=O)N(C)C)c2ccc(-c3ccnc(Cl)c3)cc21 [Compound 20]
- EC50 (REV-ERBβ): > 3000 nM
- EC50 [1]: < 500 nM

Compound: CC(C)c1ccc2c([C@H](NS(=O)(=O)N(C)C)C(F)(F)F)cn(CC(C)(C)C)c2c1 [Example 340, {[(1S)-1-[1-(2,2-dimethylpropyl)-6-(propan-2-yl)-1H-indol-3-yl]-2,2,2-trifluoroethyl]sulfamoyl}dimethylamine]
- EC50 (REV-ERBβ): 500 to 3000 nM
- EC50 [1]: < 500 nM

Compound: CC(C)(C)Cc1cn(CCNS(=O)(=O)C2CC2)c2ccc(-c3c(Cl)cc(F)cc3Cl)cc12 [Example 297, N-(2-(5-(2,6-dichloro-4-fluorophenyl)-3-neopentyl-1H-indol-1-yl)ethyl) cyclo-propane sulfonamide]
- EC50 (REV-ERBβ): 500 to 3000 nM
- EC50 [1]: 500 to 3000 nM

Compound: CC(C)Cn1cc(CCNS(=O)(=O)N(C)C)c2ccc(-c3ccncc3)nc21 [Example 203, dimethyl({2-[1-(2-methylpropyl)-6-(pyridin-4-yl)-1H-pyrrolo[2,3-b]pyridin-3-yl]ethyl}sulfamoyl)amine]
- EC50 (REV-ERBβ): > 3000 nM
- EC50 [1]: < 500 nM

Compound: CC(C)Cn1cc(CCNS(=O)(=O)C2CCCC2)c2ccc(-c3ccncc3)cc21 [Compound 11]
- EC50 (REV-ERBβ): > 3000 nM
- EC50 [1]: < 500 nM

Compound: Cc1c(-c2ccncc2)ccc2c(CCNS(=O)(=O)N(C)C)cn(C(=O)C(C)C)c12 [Example 199, 1-(3-{2-[(dimethylsulfamoyl)amino]ethyl}-7-methyl-6-(pyridin-4-yl)-1H-indol-1-yl)-2-methylpropan-1-one]
- EC50 (REV-ERBβ): 500 to 3000 nM
- EC50 [1]: < 500 nM

Compound: CC(C)Cn1cc(CCNS(=O)(=O)N(C)C)c2ccc(C(C)C)cc21 [Compound 91, dimethyl({2-[1-(2-methylpropyl)-6-(propan-2-yl)-1H-indol-3-yl]ethyl}sulfamoyl)amine]
- EC50 (REV-ERBβ): 500 to 3000 nM
- EC50 [1]: < 500 nM

Compound: Cc1cc2c(CCNS(=O)(=O)N(C)C)cn(CC(C)C)c2cc1C [Example 120, ({2-[5,6-dimethyl-1-(2-methylpropyl)-1H-indol-3-yl]ethyl}sulfamoyl)dimethylamine]
- EC50 (REV-ERBβ): > 3000 nM
- EC50 [1]: < 500 nM

Compound: CC(C)Cn1cc(CCNS(=O)(=O)c2cccnc2)c2ccc(-c3ccncc3)cc21 [Compound 15]
- EC50 (REV-ERBβ): > 3000 nM
- EC50 [1]: 500 to 3000 nM

Compound: Cc1ccc2c(c1)c(CC(C)(C)C)cn2CCNS(=O)(=O)C1CC1 [Example 296, N-(2-(5-methyl-3-neopentyl-1H-indol-1-yl)ethyl)cyclopropanesulfonamide]
- EC50 (REV-ERBβ): > 3000 nM
- EC50 [1]: 500 to 3000 nM

Compound: CN(C)S(=O)(=O)N[C@@H](c1cn(CC(C)(C)C)c2cc(C3CC3)c(F)cc12)C(F)(F)F [Example 328, {[(1S)-1-[6-cyclopropyl-1-(2,2-dimethylpropyl)-5-fluoro-1H-indol-3-yl]-2,2,2-trifluoroethyl]sulfamoyl}dimethylamine]
- EC50 (REV-ERBβ): > 3000 nM
- EC50 [1]: < 500 nM

Compound: CC(C)Cn1cc(CCNS(=O)(=O)N(C)C)c2ccc(-c3ccnc4ccccc34)cc21 [Compound 37, dimethyl({2-[1-(2-methylpropyl)-6-(quinolin-4-yl)-1H-indol-3-yl]ethyl}sulfamoyl)amine]
- EC50 (REV-ERBβ): 500 to 3000 nM
- EC50 [1]: < 500 nM

Compound: CC(C)Cn1cc(CCNS(=O)(=O)C(C)C)c2cc(F)c(-c3ccccc3Cl)cc21 [Compound 262]
- EC50 (REV-ERBβ): > 3000 nM
- EC50 [1]: < 500 nM

Compound: CC(C)Cn1cc(CCNS(=O)(=O)C(C)C)c2cc(F)c(-c3ccncc3Cl)cc21 [Compound 263]
- EC50 (REV-ERBβ): > 3000 nM
- EC50 [1]: < 500 nM

Compound: CC(C)Cn1cc(CCNS(=O)(=O)C2CC2)c2ccc(-c3ccncc3)cc21 [Compound 13]
- EC50 (REV-ERBβ): > 3000 nM
- EC50 [1]: < 500 nM

Compound: Cc1noc(C)c1S(=O)(=O)NCCc1cn(CC(C)C)c2cc(-c3ccncc3)ccc12 [Compound 14]
- EC50 (REV-ERBβ): > 3000 nM
- EC50 [1]: > 3000 nM

Compound: CCCc1ccc2c(CCNS(=O)(=O)N(C)C)cn(CC(C)C)c2c1 [Compound 98, dimethyl({2-[1-(2-methylpropyl)-6-propyl-1H-indol-3-yl]ethyl}sulfamoyl)amine]
- EC50 (REV-ERBβ): > 3000 nM
- EC50 [1]: < 500 nM

Compound: O=S(=O)(NCc1cn(CC2(C(F)(F)F)CC2)c2cc(-c3ccncc3Cl)c(F)cc12)C1CC1 [Compound 286]
- EC50 (REV-ERBβ): > 3000 nM
- EC50 [1]: < 500 nM

Compound: CC(C)Cn1cc(CCNS(=O)(=O)N(C)C)c2ccc(-c3ccnc(C(F)(F)F)c3)cc21 [Compound 17]
- EC50 (REV-ERBβ): > 3000 nM
- EC50 [1]: 500 to 3000 nM

Compound: CC(C)(C)Cc1cn(CCNS(=O)(=O)C2CC2)c2ccc(-c3ccc(C(F)(F)F)cc3C(F)(F)F)cc12 [Example 299, N-(2-(5-(2,4-bis(trifluoromethyl)phenyl)-3-neopentyl-1H-indol-1-yl)ethyl)cyclo-propanesulfonamide]
- EC50 (REV-ERBβ): 500 to 3000 nM
- EC50 [1]: < 500 nM

Compound: CC(C)Cn1cc([C@H](NS(=O)(=O)C2CC2)C(F)(F)F)c2cc(F)c(-c3ccccc3C(F)(F)F)cc21 [Example 313, (S)—N-(2,2,2-trifluoro-1-(5-fluoro-1-isobutyl-6-(2-(trifluoromethyl)phenyl)-1H-indol-3-yl)ethyl)cyclopropanesulfonamide]
- EC50 (REV-ERBβ): > 3000 nM
- EC50 [1]: < 500 nM

Compound: CC(C)(C)Cc1cn(CCNS(=O)(=O)C2CC2)c2ccc(Br)cc12 [Example 298, N-(2-(5-bromo-3-neopentyl-1H-indol-1-yl)ethyl)cyclopropanesulfonamide]
- EC50 (REV-ERBβ): > 3000 nM
- EC50 [1]: 500 to 3000 nM

Compound: CC(C)(C)Cn1cc([C@H](NS(=O)(=O)C2CC2)C(F)(F)F)c2cc(F)c(Br)cc21 [Example 342, (S)—N-(1-(6-bromo-5-fluoro-1-neopentyl-1H-indol-3-yl)-2,2,2-trifluoroethyl)cyclopropanesulfonamide]
- EC50 (REV-ERBβ): > 3000 nM
- EC50 [1]: < 500 nM

Compound: CC(C)(C)Cc1cn(CCNS(=O)(=O)C2CC2)c2ccc(-c3ccc(F)cc3C(F)(F)F)cc12 [Example 301, N-(2-(5-(4-fluoro-2-(trifluoromethyl)phenyl)-3-neopentyl-1H-indol-1-yl)ethyl) cyclopropanesulfonamide]
- EC50 (REV-ERBβ): 500 to 3000 nM
- EC50 [1]: < 500 nM

Compound: CC(C)C(=O)n1cc(C(C)NS(=O)(=O)N(C)C)c2ccc(-c3ccncc3)cc21 (stereo not shown) [Example 180, 1-(3-{1-[(dimethylsulfamoyl)amino]ethyl}-6-(pyridin-4-yl)-1H-indol-1-yl)-2-methylpropan-1-one]
- EC50 (REV-ERBβ): > 3000 nM
- EC50 [1]: < 500 nM

Compound: CC(C)Cn1cc(CCNS(=O)(=O)N(C)C)c2ccc(-c3c(Cl)cccc3Cl)cc21 [Example 80, N-{2-[6-(2,6-dichlorophenyl)-1-(2-methylpropyl)-1H-indol-3-yl]ethyl}-N,N-dimethyl-sulfuric diamide]
- EC50 (REV-ERBβ): > 3000 nM
- EC50 [1]: < 500 nM

Compound: CC(C)(C)Cc1cn(CCNS(=O)(=O)C2CC2)c2ccc(-c3cccc(F)c3C(F)(F)F)cc12 [Example 227, N-(2-(5-(3-fluoro-2-(trifluoromethyl)phenyl)-3-neopentyl-1H-indol-1-yl)ethyl) cyclopropanesulfonamide]
- EC50 (REV-ERBβ): 500 to 3000 nM
- EC50 [1]: < 500 nM
